According to paper PMC7243115, “Evaluation of the Anti-Tumor Activity of Small Molecules Targeting Eph/Ephrins in APC ^min/J Mice” (Pharmaceuticals, 2020):
Where “and” joins values, the source holds several entries; their conditions need not be identical. Identical values can stand only once.

Columns and labels:
[1] = system: APC ^min/J mice; format: in vivo; details: 30 mg/kg oral every other day, 8 weeks
Description: UniPR129, UniPR139 and UniPR1331 were tested in an animal model of intestinal tumorigenesis, based on the usage of APC ^min/J mice, which spontaneously develop multiple and large adenomas over intestinal tract due to a gene mutation.
(§1) 5 weeks old C57BL/6J-APC ^min/J male mice were purchased from Jackson Laboratory (Bar Harbor, ME USA). Mice were weighted and randomly subdivided in four groups: • Control group: Oral administration of Methocel 0.5% every other day; • Three treatment groups: oral administration of UniPR129, UniPR139 or UniPR1331 30 mg/kg in Methocel 0.5% every other day.
(§2) The experiment was carried out for 8 weeks and over this period the weight was monitored once a week. At the end of the experiment, all mice were sacrificed by carbon dioxide inhalation and blood samples were collected via intracardiac […] and used for evaluation of hematological parameters.
Hematological and blood chemistry parameters were undergone to one-way ANOVA to compare control group to treatment groups.

[2] = cited from earlier work
[3] = system: adenomas in APC ^min/J mice; test: Intestinal tumorigenesis model: number and diameter of adenomas (histological analysis); format: in vivo
Description: UniPR129, UniPR139 and UniPR1331 were tested in an animal model of intestinal tumorigenesis, based on the usage of APC ^min/J mice, which spontaneously develop multiple and large adenomas over intestinal tract due to a gene mutation. […] Five weeks old mice have been treated with the three compounds at 30 mg/kg dose for 8 weeks every other day following previous observations. The weight of the mice has been monitored from the beginning of the treatment until the end of the study to follow the course of the disease and to detect potentially toxic effects of compounds.
as §1, §2
The whole intestine of all the mice was resected, washed with sterile PBS and fixed with 4% formalin. After 24 h, the intestine was longitudinally divided in 6 portions (1-duodenum, 2-jejunum, 3-ileum, 4-caecum, 5-colon, 6-rectum) and each portion was embedded in paraffin and sectioned at 5 μm with microtome (Leica). Slides were dried at 37 °C for 24 h, then deparaffinized in xylene, rehydrated with decreasing concentration of alcohol and stained with hematoxylin and eosin.
Histological slides were examined with Nikon Eclipse E800 microscope (Nikon Corporation, Japan) and photographs of sections were taken at 2x with Camera Nikon DIGITAL SIGHT attached to the microscope. The observation of longitudinal sections of the small intestine allowed to determine the distribution and number of adenomatous lesions; four longitudinal sections have been prepared for each segment of small intestine. The microscopic images of the ileum have been subsequently analyzed, using the ImageJ software, to determine the diameter and area of each adenoma.

[4] = of the total number of adenomas in the ileum section

C[C@H](CCC(=O)N[C@H](CC(=O)O)Cc1c[nH]c2ccccc12)[C@H]1CC[C@H]2[C@@H]3CC[C@@H]4C[C@H](O)CC[C@]4(C)[C@H]3CC[C@]12C [UniPR129]
tolerability [1]: well tolerated
ALT ([1]; mean ± SD, n = 7): 23.43 ± 3.78 UI
AST/GOT ([1]; mean ± SD, n = 7): 108.86 ± 47.11 UI
Basophils ([1]; mean ± SD, n = 7): 0.00 ± 0.00%
Creatinine ([1]; mean ± SD, n = 7): 0.22 ± 0.08 mg/dL
Eosinophils ([1]; mean ± SD, n = 7): 0.10 ± 0.10%
Glucose ([1]; mean ± SD, n = 7): 161.10 ± 21.18 mg/dL
Haematocrit ([1]; mean ± SD, n = 7): 26.69 ± 6.56%
Haemoglobin ([1]; mean ± SD, n = 7): 8.71 ± 2.15 g/dL
Lymphocytes ([1]; mean ± SD, n = 7): 93.29 ± 6.14%
Mean cellular Volume ([1]; mean ± SD, n = 7): 53.87 ± 2.62 fL
Mean platelet Volume ([1]; mean ± SD, n = 7): 4.91 ± 0.43 fL
Monocytes ([1]; mean ± SD, n = 7): 0.43 ± 0.31%
Neutrophils ([1]; mean ± SD, n = 7): 6.20 ± 6.33%
Platelets ([1]; mean ± SD, n = 7): 1191 ± 186.77 103/µL
Red cells ([1]; mean ± SD, n = 7): 5.01 ± 1.43 106/µL
Triglycerides ([1]; mean ± SD, n = 7): 145.10 ± 38.6 mg/dL
White cells ([1]; mean ± SD, n = 7): 4.83 ± 0.70 103/μL
bioavailability after oral administration [2]: not be bioavailable after oral administration
first pass hepatic metabolism [2]: extensive first pass hepatic metabolism
efficacy in the model of intestinal tumorigenesis ([3]; 30 mg/kg oral every other day, 8 weeks): the only compound to show positive results
Ileum Adenomas, Mean (number) ([3]; 30 mg/kg oral every other day, 8 weeks, n = 7, CTR 13.14): 7.57 ± 2.07 and 7.57
Overall Intestine Adenomas, Mean (number) ([3]; 30 mg/kg oral every other day, 8 weeks, n = 7, CTR 19.71): 14.00
reduction of the formation of adenomas in the ileum ([3]; 30 mg/kg oral, 8 weeks, vs control): 1.6 times
mean adenoma diameter in the ileum ([3]; 30 mg/kg oral, ± 0.28 (SD), control 0.94 mm ± 0.39 (SD)): 0.71 mm
number of medium adenomas (1 to 1.5 mm) in the ileum ([3]; 30 mg/kg oral, ± SD, CTR 29 ± 2.5): 11 ± 1.3
Percentage of adenomas, class Large (1.5 to 2 mm) [3, 4]: 0%
Percentage of adenomas, class Medium (1 to 1.5 mm) [3, 4]: 21%
Percentage of adenomas, class Small (0.5 to 1 mm) [3, 4]: 51%
Percentage of adenomas, class Very Large (> 2 mm) [3, 4]: 0%
Percentage of adenomas, class Very Small (< 0.5 mm) [3, 4]: 28%
